Laboratory results: patent publication US12121522B2, “Methods of treating cancer with an mTOR inhibitor” (Revolution Medicines, Inc., priority 2022, dated 2024)
Where “and” joins values, the source holds several entries; their conditions need not be identical. Identical values can stand only once.

Assays:
HN009 HNSCC PDX = test: HN009 HNSCC patient-derived xenograft; assay type: in vivo, mouse
Source text: FIGS. 3A-3B show Antitumor Activity of RMC-5552 in the HN009 Patient-Derived Xenograft Model of Human HNSCC Following Once-Weekly Administration. Abbreviations: ANOVA=analysis of variance; IP=intraperitoneal; QW=once weekly. […] Each animal represented as a separate bar. The number of tumor regressions out of total mice in that group is shown (tumor regression defined as >10% reduction in tumor volume from starting volume) in each group.
(§1) The antitumor activity of RMC-5552 as a single agent against tumors predicted to be dependent on the mTOR pathway and/or bearing specific PI3K/mTOR pathway-activating mutations (i.e., PIK3CA^mut, phosphatase and tensin homolog [PTEN^LOF], or co-mutation of both and tuberous sclerosis complex [TSC^LOF]) was evaluated in selected CDX and/or PDX models
(§2) Table 1. RMC-5552 was administered IP once weekly at 1, 3, 10, and 30 mg/kg. In the breast cancer MCF7 PIK3CA^[…] model, a higher dose of 50 mg/kg once weekly and an alternate dose regimen of 30 mg/kg every 10 days were also evaluated.

[1] = test system: TOV21G ovarian cancer CDX; test: TOV21G ovarian cancer xenograft; assay type: in vivo, mouse
Procedure: FIGS. 2A-2D show Antitumor Activity of RMC-5552 in the TOV21G Cell Line-Derived Xenograft Model of Human Ovarian Cancer Following Once-Weekly Administration. Abbreviations: ANOVA=analysis of variance; IP=intraperitoneal; QW=once weekly. […] Each animal represented as a separate bar. Number of animals per group=10, or n=5 in 3 mg/kg dosing arm. Numbers indicate number of regressions at respective doses (defined as >10% reduction in tumor volume from starting volume) in each group. […] FIG. 2D reflects Kaplan-Meier survival analysis of the time for TOV21G tumors to regrow to a tumor volume of 300 mm^3 following treatment cessation. Median time to regrowth in RMC-5552 3 mg/kg arm is 61 days, while 10 mg/kg dose survival time was undefined, extending past 73 days. Dotted horizontal line indicates time to regrowth of 50% of the tumors in a treatment.
as §1, §2

[2] = test system: BXF 2211 TSC1^-/- bladder cancer; test: BXF 2211 bladder cancer xenograft; assay type: in vivo, mouse
Procedure: as §1, §2

tumor p4EBP1 = test: PK-pharmacodynamics of tumor p4EBP1 and pS6RP in MCF7 tumor-bearing mice; assay type: in vivo, mouse
Source text: FIGS. 4A-4C show Pharmacokinetic-Pharmacodynamic Profile for RMC-5552 Modulation of Tumor p4EBP1 and pS6RP in MCF7 Tumor Bearing Athymic Nude Mice. Abbreviations: IP=intraperitoneal; p4EBP1=phosphorylated eukaryotic translation initiation factor 4E-binding protein 1; PK=pharmacokinetic; pS6RP=phosphorylated S6 ribosomal protein; u=unbound. […] Data represent means±standard errors (n=3).
Colors of symbols denote time of tissue harvest following IP administration of a single dose of RMC-5552. […] Data represent means standard errors (n=3).
The in vivo PK-pharmacodynamic relationship for inhibition of activated mTOR pathway signaling of RMC-5552 as a single agent was determined in the breast cancer MCF7 and HCC-1954 PIK3CA mutant CDX models.
Consistent with inhibition of mTORC1 signaling in vitro, IP administration of RMC-5552 to nude mice produced a dose and plasma concentration-dependent-inhibition of tumor p4EBP1 and pS6RP (a direct substrate of P70S6K) in PI3K mutant breast cancer MCF7 xenograft models FIG. 5. Inhibition of p4EBP1 was maximal at 24 to 48 hours after treatment.

Mouse plasma exposure = assay type: in vivo; conditions: fu 0.001-0.004
[3] = test system: advanced relapsed/refractory solid tumors; test: Clinical efficacy (RECIST v1.1), study RMC-5552-001; assay type: in vivo, human
Procedure: Refer to FIG. 7 for a waterfall plot of best response in subjects treated at majority dose of 6 mg or 8 mg IV weekly (one hour infusion).
Subjects were evaluated at doses of 6 mg and higher. […] One patient discontinued treatment due to clinical progression without post-baseline scans. Three patients experienced radiographic progressive disease (PD).

[4] = 13 efficacy-evaluable patients at ≥6 mg
[5] = 27 efficacy-evaluable subjects, majority doses 6 mg or 8 mg IV weekly
[6] = endometrial PIK3CA, PTEN, TSC2, 8 mg QW
[7] = uterine CaSarc TSC1 LOF, 10 mg single dose, 6 mg QW

CO[C@H]1C[C@@H]2CC[C@@H](C)[C@@](O)(O2)C(=O)C(=O)N2CCCC[C@H]2C(=O)O[C@H]([C@H](C)C[C@@H]2CC[C@@H](OC(=O)NCCOCCOCCOCCOCCOCCOCCOCCOCCC(=O)N3CCc4cc(Cn5nc(-c6ccc7oc(N)nc7c6)c6c(N)ncnc65)ccc4C3)[C@H](OC)C2)C[C@@H](O)[C@H](C)/C=C(\C)[C@@H](O)[C@@H](OC)C(=O)[C@H](C)C[C@H](C)/C=C/C=C/C=C/1C [RMC-5552]
TGI (HN009 HNSCC PDX; 3 mg/kg IP QW): 91%
tumor regression (HN009 HNSCC PDX; 10 mg/kg IP QW): 17% regression
tumor regression ([1]; 3 mg/kg IP QW): 34% regression
median time to regrowth to 300 mm^3 after treatment cessation ([1]; 3 mg/kg QW IP, 4 doses): 61 days
tumor regression ([1]; 10 mg/kg IP QW): 61% regression
time to regrowth to 300 mm^3 after treatment cessation (undefined) ([1]; 10 mg/kg QW IP, 4 doses): > 73 days
tumor regression ([2]; 3 mg/kg IP QW): 91% regression
tumor regression ([2]; 10 mg/kg IP QW): 94% regression
maximum level of inhibition of p4EBP1 relative to control (tumor p4EBP1; MCF7, single IP dose): > 90%
EC50 (tumor p4EBP1; unbound plasma concentration, MCF7, read-out: in vivo EC50 for inhibition of p4EBP1): 0.22 nM
Unbound AUC0-last, mean mouse exposure (Mouse plasma exposure; 1 mg/kg): 0.021 to 0.084 µM·h
Unbound Cmax, mean mouse exposure (Mouse plasma exposure; 1 mg/kg): 2 to 8 nM
Unbound AUC0-last, mean mouse exposure (Mouse plasma exposure; 3 mg/kg): 0.053 to 0.21 µM·h
Unbound Cmax, mean mouse exposure (Mouse plasma exposure; 3 mg/kg): 3.7 to 14.7 nM
best response of stable disease (SD), subjects [3, 4]: 8
confirmed partial response (PR), subjects [3, 4]: 1
discontinued due to clinical progression without post-baseline scans, patients [3, 4]: One
radiographic progressive disease (PD), patients [3, 4]: Three
Disease Control Rate (DCR) [3, 5]: 74.1%
subjects with confirmed partial response [3, 5]: one
subjects with stable disease as best response [3, 5]: 19
RECIST reduction ([3]; 67F NSCLC STK11, TSC2, KRAS L19F, 8 mg QW): 4% reduction
RECIST reduction ([3]; 76F NSCLC BRAF fusion, 10 mg single dose, 6 mg QW): 22%
reduction in sum of target lesions (RECIST), subject with confirmed PR ([3]; H&N (salivary gland) cancer, PTEN mutation, 12 mg single dose then 6 mg QW): 77.6% and 77%
subjects with Partial Response (PR) ([3]; cancer with PTEN mutation): 1
CA125, nadir [3, 6]: to nadir of 254; 9+ months
CA125, peak [3, 6]: CA125 from peak of 1465
RECIST reduction [3, 6]: 7% reduction
subjects with Partial Response (PR) ([3]; head and neck cancer, PTEN mutation): 1
RECIST increase (mixed) ([3]; ovarian CA TSC1 LOF, 6 mg QW): 19% increase
reduction in CA125 ([3]; ovarian CA TSC1 LOF, 6 mg QW): 72% reduction in CA125
reduction in FDG avidity by PET/CT ([3]; ovarian CA TSC1 LOF, 6 mg QW): Strong: 50% reduction in
reduction in tumor size, 1 subject ([3]; salivary gland cancer): 63%
RECIST reduction [3, 7]: 4.4%
reduction in CA125 [3, 7]: Strong: 37% reduction in
